Changes are numbered by the printed parent chain.
What was measured:
Experiment in all cases: perforated-patch whole-cell voltage clamp, peak ATP-gated current, Hill fit
Type in all cases: cell-based
[1] = biological target: T1, rP2X2R (rP2X2R-WT; rP2X2R-T for the C348T background) (Rattus norvegicus, UniProt P49653, C348T/F44C)
T1 construct: gene P2rx2; full-length, C-terminal FLAG tag (DYKDDDDK), transiently expressed in HEK293 cells with EGFP; homotrimer; monomer about 62 kDa on SDS-PAGE; all point mutants made on the C348T (rP2X2R-T) background
T1 sequence (P49653 1-472 F44C/C348T): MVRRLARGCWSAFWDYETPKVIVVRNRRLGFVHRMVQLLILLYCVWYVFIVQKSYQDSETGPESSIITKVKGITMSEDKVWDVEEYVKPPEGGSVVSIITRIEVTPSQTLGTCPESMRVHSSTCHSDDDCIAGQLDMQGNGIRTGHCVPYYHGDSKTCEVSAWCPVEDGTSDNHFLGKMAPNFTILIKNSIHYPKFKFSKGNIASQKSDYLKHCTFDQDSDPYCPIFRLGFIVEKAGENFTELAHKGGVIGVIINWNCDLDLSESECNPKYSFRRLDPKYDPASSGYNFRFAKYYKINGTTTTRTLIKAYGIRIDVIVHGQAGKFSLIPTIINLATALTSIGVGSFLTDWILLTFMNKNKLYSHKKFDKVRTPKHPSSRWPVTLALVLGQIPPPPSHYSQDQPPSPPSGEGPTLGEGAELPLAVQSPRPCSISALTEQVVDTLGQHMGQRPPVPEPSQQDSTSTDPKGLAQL
From the text: (§1) perforated-patch whole-cell voltage clamp, peak ATP-gated current, Hill fit on rP2X2R (rP2X2R-WT; rP2X2R-T for the C348T background)

[2] = biological target: T2, rP2X2R (rP2X2R-WT; rP2X2R-T for the C348T background) (Rattus norvegicus, UniProt P49653, C348T/H33A)
T2 construct: gene P2rx2; full-length, C-terminal FLAG tag (DYKDDDDK), transiently expressed in HEK293 cells with EGFP; homotrimer; monomer about 62 kDa on SDS-PAGE; all point mutants made on the C348T (rP2X2R-T) background
T2 sequence (P49653 1-472 H33A/C348T): T1 sequence (P49653 1-472 F44C/C348T) with H33A, C44F
From the text: as §1

[3] = biological target: T3, rP2X2R (rP2X2R-WT; rP2X2R-T for the C348T background) (Rattus norvegicus, UniProt P49653, C348T/H33A/S345A)
T3 construct: gene P2rx2; full-length, C-terminal FLAG tag (DYKDDDDK), transiently expressed in HEK293 cells with EGFP; homotrimer; monomer about 62 kDa on SDS-PAGE; all point mutants made on the C348T (rP2X2R-T) background
T3 sequence (P49653 1-472 H33A/S345A/C348T): T1 sequence (P49653 1-472 F44C/C348T) with H33A, C44F, S345A
From the text: as §1

[4] = biological target: T4, rP2X2R (rP2X2R-WT; rP2X2R-T for the C348T background) (Rattus norvegicus, UniProt P49653, C348T/H33C)
T4 construct: gene P2rx2; full-length, C-terminal FLAG tag (DYKDDDDK), transiently expressed in HEK293 cells with EGFP; homotrimer; monomer about 62 kDa on SDS-PAGE; all point mutants made on the C348T (rP2X2R-T) background
T4 sequence (P49653 1-472 H33C/C348T): T1 sequence (P49653 1-472 F44C/C348T) with H33C, C44F
From the text: as §1

[5] = biological target: T5, rP2X2R (rP2X2R-WT; rP2X2R-T for the C348T background) (Rattus norvegicus, UniProt P49653, C348T/H33C/S345C)
T5 construct: gene P2rx2; full-length, C-terminal FLAG tag (DYKDDDDK), transiently expressed in HEK293 cells with EGFP; homotrimer; monomer about 62 kDa on SDS-PAGE; all point mutants made on the C348T (rP2X2R-T) background
T5 sequence (P49653 1-472 H33C/S345C/C348T): T1 sequence (P49653 1-472 F44C/C348T) with H33C, C44F, S345C
From the text: as §1

[6] = biological target: T6, rP2X2R (rP2X2R-WT; rP2X2R-T for the C348T background) (Rattus norvegicus, UniProt P49653, C348T/I328A)
T6 construct: gene P2rx2; full-length, C-terminal FLAG tag (DYKDDDDK), transiently expressed in HEK293 cells with EGFP; homotrimer; monomer about 62 kDa on SDS-PAGE; all point mutants made on the C348T (rP2X2R-T) background
T6 sequence (P49653 1-472 I328A/C348T): T1 sequence (P49653 1-472 F44C/C348T) with C44F, I328A
From the text: as §1

[7] = biological target: T7, rP2X2R (rP2X2R-WT; rP2X2R-T for the C348T background) (Rattus norvegicus, UniProt P49653, C348T/I328C/V48C)
T7 construct: gene P2rx2; full-length, C-terminal FLAG tag (DYKDDDDK), transiently expressed in HEK293 cells with EGFP; homotrimer; monomer about 62 kDa on SDS-PAGE; all point mutants made on the C348T (rP2X2R-T) background
T7 sequence (P49653 1-472 V48C/I328C/C348T): T1 sequence (P49653 1-472 F44C/C348T) with C44F, V48C, I328C
From the text: as §1

[8] = biological target: T8, rP2X2R (rP2X2R-WT; rP2X2R-T for the C348T background) (Rattus norvegicus, UniProt P49653, C348T/S345A)
T8 construct: gene P2rx2; full-length, C-terminal FLAG tag (DYKDDDDK), transiently expressed in HEK293 cells with EGFP; homotrimer; monomer about 62 kDa on SDS-PAGE; all point mutants made on the C348T (rP2X2R-T) background
T8 sequence (P49653 1-472 S345A/C348T): T1 sequence (P49653 1-472 F44C/C348T) with C44F, S345A
From the text: as §1

[9] = biological target: T9, rP2X2R (rP2X2R-WT; rP2X2R-T for the C348T background) (Rattus norvegicus, UniProt P49653, C348T/S345C)
T9 construct: gene P2rx2; full-length, C-terminal FLAG tag (DYKDDDDK), transiently expressed in HEK293 cells with EGFP; homotrimer; monomer about 62 kDa on SDS-PAGE; all point mutants made on the C348T (rP2X2R-T) background
T9 sequence (P49653 1-472 S345C/C348T): T1 sequence (P49653 1-472 F44C/C348T) with C44F, S345C
From the text: as §1

EC50 [1]: 0.81 ± 0.1 µM
EC50 [2]: 4.2 ± 0.6 µM
EC50 [3]: 35.7 ± 0.5 µM
EC50 [4]: 2.3 ± 0.5 µM
EC50 [5]: 7.3 ± 1.1 µM
EC50 [6]: 0.4 ± 0.1 µM
EC50 [7]: 17.8 ± 2 µM
EC50 [8]: 12.1 ± 0.7 µM
EC50 [9]: 6.3 ± 0.9 µM
SMILES: Nc1ncnc2c1ncn2[C@@H]1O[C@H](COP(=O)(O)OP(=O)(O)OP(=O)(O)O)[C@@H](O)[C@H]1O [ATP]

— PMC3735612, “Functional Identification of Close Proximity Amino Acid Side Chains within the Transmembrane-Spanning Helixes of the P2X2 Receptor” (PLoS ONE, 2013)
